Test [1] addresses T1, human sphingosine-1-phosphate receptor 1 (S1P1) (Homo sapiens, UniProt P21453). The test can be described thus: β-Arrestin2 recruitment assay (PathHunter), S1P1 CHO-K1 cells. Format: cell-based. Conditions: for Emax: CHO-K1, β-arrestin2 recruitment, efficacy normalized to maximum efficacy of fingolimod, read-out: hS1P1 B-arrestin2 SPAN; for EC50: β-arrestin2 recruitment, potency, read-out: hS1P1 B-arrestin2 pEC50 (converted). The procedure:
Stable clonal Chinese hamster ovary K1 (CHO-K1) cells co-expressing EA-β-arrestin2 and the human sphingosine-1-phosphate receptor 1 (NM_001400, S1P1) with a C-terminal Prolink™ tag were purchased from DiscoverX corporation (Cat #: 93-0207C2).
Cell lines were cultured in AssayComplete™ Media 6 (DiscoverX Corporation, Cat #: 920018GF2) at 37° C. and 5% CO2 in a humidified CO2 and temperature-controlled incubator. To begin assay plating, cells were washed with Dulbecco's phosphate buffered saline (CellGro, Cat #: 21-031-CV) and lifted from the culturing flask by incubation (37° C., 5 min) with CellStripper (Cellgro, Cat #: 25-056-CI). […] Plated cells were incubated overnight at 37° C. and 5% CO2 in a humidified CO2 and temperature-controlled incubator.
Agonist-promoted β-arrestin2 recruitment to the sphingosine-1-phosphate 1 receptor was determined using the β-arrestin PathHunter® Detection kit (DiscoverX Corporation, Cat #: 93-0001). […] In cells that stably express these fusion proteins, stimulation with a cognate agonist results in the interaction of β-arrestin2 and the Prolink™-tagged GPCR. This allows the complementation of the two β-galactosidase fragments and results in the formation of a functional enzyme with β-galactosidase activity. […] Following a 60 minute incubation at 37° C. and 5% CO2 in a humidified CO2 and temperature-controlled incubator, the components of the β-arrestin PathHunter® Detection kit were added as per the manufacturer's instructions. After an hour incubation at room temperature, plates were analyzed by a BMG PheraStar microplate reader.
These values are normalized to fingolimod, a known agonist of the sphingosine-1-phosphate 1 receptor.
(In general: Recruitment of arrestin is a read-out of receptor activation apart from second messengers.)
Target sequence in this assay (P21453 whole entry): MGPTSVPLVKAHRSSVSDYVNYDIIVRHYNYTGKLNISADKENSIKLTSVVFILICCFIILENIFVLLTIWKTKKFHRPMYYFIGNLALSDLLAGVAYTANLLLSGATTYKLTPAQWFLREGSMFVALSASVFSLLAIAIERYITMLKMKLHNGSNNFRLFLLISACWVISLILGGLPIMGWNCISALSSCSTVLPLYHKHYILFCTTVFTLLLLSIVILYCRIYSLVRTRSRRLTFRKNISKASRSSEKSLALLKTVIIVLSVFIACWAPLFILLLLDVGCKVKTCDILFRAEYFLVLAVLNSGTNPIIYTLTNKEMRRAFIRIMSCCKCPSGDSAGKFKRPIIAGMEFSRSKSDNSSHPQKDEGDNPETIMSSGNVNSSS
Target sequence in this assay (P32121 whole entry partner): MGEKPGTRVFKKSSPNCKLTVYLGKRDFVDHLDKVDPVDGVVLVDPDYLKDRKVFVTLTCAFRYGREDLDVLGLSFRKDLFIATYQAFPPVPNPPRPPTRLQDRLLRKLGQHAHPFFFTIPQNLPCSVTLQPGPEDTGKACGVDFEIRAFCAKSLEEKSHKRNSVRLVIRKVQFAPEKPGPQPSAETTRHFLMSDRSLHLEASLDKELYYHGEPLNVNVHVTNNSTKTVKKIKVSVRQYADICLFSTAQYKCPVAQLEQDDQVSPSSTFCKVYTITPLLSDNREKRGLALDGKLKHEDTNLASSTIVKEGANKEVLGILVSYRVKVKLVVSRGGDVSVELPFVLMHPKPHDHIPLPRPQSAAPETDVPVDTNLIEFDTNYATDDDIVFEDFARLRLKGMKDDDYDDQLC

The target of test [2] is T1, human sphingosine-1-phosphate receptor 1 (S1P1). The test can be described thus: Inhibition of cAMP production (HTRF cAMP HiRange), S1P1 CHO-K1 cells. Format: cell-based. Conditions: inhibition of cAMP production; for Emax: CHO-K1, efficacy normalized to maximum efficacy of fingolimod, read-out: hS1P1 CAMP SPAN; for EC50: potency, read-out: hS1P1 CAMP pEC50 (converted). A digest of the protocol:
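Intracellular cAMP changes read by TR-FRET (HTRF HiRange, 1 h room temperature) after 30 min compound exposure at 37 °C. Cells: overnight-plated CHO-K1 stably expressing tagged human S1P1 with EA-β-arrestin2. Responses normalized to fingolimod.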
Target sequence in this assay (P21453 whole entry): as the sequence (P21453 whole entry) above
(In general: Changes in cAMP serve as a functional read-out for many G protein-coupled receptors.)

Some results are limits rather than exact numbers.

This is an account of results in patent US20230114241A1, “METHODS OF TREATING EPILEPSY USING THE SAME” (Trevena, Inc., priority 2019, published 2023).

Take `CC(C)n1nnc2cc(-c3noc(-c4cccc(F)c4)n3)ccc21` [Compound 64, 5-(3-fluorophenyl)-3-(1-isopropyl-benzotriazol-5-yl)-1,2,4-oxadiazole]: in test [1], the Emax is above 75% and the EC50 is above 10 µM. Also, in test [2], the Emax was above 75% and the EC50 is below 316 nM.

Consider `Cc1cc(C)cc(-c2noc(-c3ccc4c(c3)nnn4C3CCOCC3)n2)c1` [Compound 93, 5-[3-(3,5-dimethyl-phenyl)-1,2,4-oxadiazol-5-yl]-1-(oxan-4-yl)-1H-1,2,3-benzotriazole], for which, in test [1], the Emax is above 75% and the EC50 is above 10 µM. Also, in test [2], the Emax is below 75% and the EC50 is above 316 nM.

For the compound `CC(C)n1nnc2cc(-c3nsc(-c4ccccc4O)n3)ccc21` [Compound 112, 2-{3-[1-(propan-2-yl)-1H-1,2,3-benzotriazol-5-yl]-1,2,4-thiadiazol-5-yl}phenol], the Emax in test [1] and in test [2] was above 75% throughout. Moreover, the EC50 in test [1] is below 10 µM; in test [2], below 316 nM.

As to `c1ccc(-c2noc(-c3ccc4[nH]nnc4c3)n2)cc1` [Compound 113, 5-(3-phenyl-1,2,4-oxadiazol-5-yl)-1H-1,2,3-benzotriazole], the Emax in test [1] and in test [2] was below 75% in each case. The EC50 was above 10 µM in test [1] and above 316 nM in test [2].

For `FC(F)(F)c1cccc(-c2noc(-c3ccc4c(c3)nnn4C3CCCC3)n2)c1` [Compound 118, 1-cyclopentyl-5-{3-[3-(trifluoromethyl)phenyl]-1,2,4-oxadiazol-5-yl}-1H-1,2,3-benzotriazole], the Emax in test [1] is below 75%. In test [2], the Emax was below 75% and the EC50 is above 316 nM.

In the case of `COc1ccccc1-c1nnc(-c2ccc3c(c2)nnn3C(C)C)s1` [Compound 144, 5-[5-(2-methoxyphenyl)-1,3,4-thiadiazol-2-yl]-1-(propan-2-yl)-1H-1,2,3-benzotriazole], in test [1], the Emax was below 75% and the EC50 was below 10 µM. Besides, in test [2], the Emax is above 75% and the EC50 is above 316 nM.

As for `C=CCNc1ccc(-c2nc(-c3ccc4[nH]nnc4c3)no2)cc1C#N` [Compound 145, 5-(3-(1H-benzo[d] [1,2,3]triazol-5-yl)-1,2,4-oxadiazol-5-yl)-2-(allylamino)benzonitrile], the values for the Emax in test [1] and in test [2] were below 75% and above 75%, respectively. The EC50 in test [1] is below 10 µM; in test [2] it was below 316 nM.

`O=C1CC2(CCOCC2)Oc2ccc(-c3nc(-c4ccncc4)no3)cc21` [Compound 148, 6-[3-(pyridin-4-yl)-1,2,4-oxadiazol-5-yl]-3,4-dihydrospiro [1-benzopyran-2,4′-oxane]-4-one]: in test [1], the Emax is below 75% and the EC50 was above 10 µM. In test [2], the Emax was below 75% and the EC50 was above 316 nM.

With `CCC1(CC)CC(=O)c2cc(-c3nc(-c4ccc(C(=O)N(C)C)cc4)no3)ccc2O1` [Compound 151, 4-(5-(2,2-diethyl-4-oxochroman-6-yl)-1,2,4-oxadiazol-3-yl)-N,N-dimethylbenzamide], in test [1], the Emax was above 75% and the EC50 is above 10 µM. In test [2], the Emax is above 75% and the EC50 was above 316 nM.

In the case of `Cc1ccccc1C(C)c1noc(-c2ccc3c(c2)nnn3CC(C)C)n1` (stereo not shown) [Compound 154, 5-{3-[1-(2-methyl-phenyl)ethyl]-1,2,4-oxadiazol-5-yl}-1-(2-methylpropyl)-1H-1,2,3-benzotriazole], the Emax in test [1] and in test [2] was below 75% in each case. In addition, the EC50 in test [1] was above 10 µM; in test [2], above 316 nM.

In the case of `COc1cc(-c2noc(-c3ccc4c(c3)nnn4C3CC3)n2)ccn1` [Compound 155, 1-cyclopropyl-5-[3-(2-methoxypyridin-4-yl)-1,2,4-oxadiazol-5-yl]-1H-1,2,3-benzotriazole], in test [1], the Emax was below 75% and the EC50 is above 10 µM. Further, in test [2], the Emax was below 75% and the EC50 was above 316 nM.

For `Cc1cnc(-c2noc(-c3ccc4c(c3)nnn4C(C)C)n2)cn1` [Compound 157, 5-[3-(5-methylpyrazin-2-yl)-1,2,4-oxadiazol-5-yl]-1-(propan-2-yl)-1H-1,2,3-benzotriazole], in test [1], the Emax was below 75% and the EC50 is above 10 µM. In test [2], the Emax is below 75% and the EC50 is above 316 nM.

For `Cc1cncc(-c2nc(-c3ccc4c(c3)nnn4C(C)C)no2)c1` [Compound 159, 3-(1-isopropyl-1H-benzo[d][1,2,3]triazol-5-yl)-5-(5-methylpyridin-3-yl)-1,2,4-oxadiazole], in test [1], the Emax is below 75% and the EC50 is above 10 µM. Besides, in test [2], the Emax was below 75% and the EC50 was above 316 nM.

Regarding `CCCn1nnc2cc(-c3nc(-c4ccccc4)no3)ccc21` [Compound 160, 5-(3-phenyl-1,2,4-oxadiazol-5-yl)-1-propyl-1H-1,2,3-benzotriazole], the Emax in test [1] and in test [2] was below 75% each time. The results for the EC50 in test [1] and in test [2] were above 10 µM and above 316 nM, respectively.

Consider `COC(=O)CCn1nnc2cc(-c3noc(-c4ccccc4Br)n3)ccc21` [Compound 161, methyl 3-(5-(5-(2-bromophenyl)-1,2,4-oxadiazol-3-yl)-1H-benzo[d][1,2,3]triazol-1-yl)propanoate], for which the values for the Emax in test [1] and in test [2] were above 75% and below 75%, respectively. Further, the EC50 is above 10 µM in test [1] and above 316 nM in test [2].

Turning to `Cc1ccccc1-c1nc(-c2ccc3c(c2)nnn3C2CCCC2)no1` [Compound 162, 3-(1-cyclopentyl-1H-benzo[d][1,2,3]triazol-5-yl)-5-(o-tolyl)-1,2,4-oxadiazole], in test [1], the Emax was above 75% and the EC50 was below 10 µM. Further, in test [2], the Emax was above 75% and the EC50 is above 316 nM.

As for `Cc1ccc(-c2noc(-c3ccc4c(c3)nnn4C3CCCC3)n2)cc1` [Compound 164, 1-cyclopentyl-5-[3-(4-methylphenyl)-1,2,4-oxadiazol-5-yl]-1H-1,2,3-benzotriazole], in test [1], the Emax was below 75% and the EC50 is above 10 µM. Further, in test [2], the Emax is below 75% and the EC50 was above 316 nM.

Consider `CC(C)n1nnc2cc(-c3nc(-c4cccnc4)no3)ccc21` [Compound 165, 1-(propan-2-yl)-5-[3-(pyridin-3-yl)-1,2,4-oxadiazol-5-yl]-1H-1,2,3-benzotriazole], for which, in test [1], the Emax is above 75% and the EC50 is above 10 µM. Further, in test [2], the Emax is above 75% and the EC50 was above 316 nM.

Turning to `Cc1ccc(-c2nc(-c3ccc4c(c3)nnn4C(C)C)no2)c(C)c1` [Compound 166, 5-(2,4-dimethylphenyl)-3-(1-isopropyl-1H-benzo[d][1,2,3]triazol-5-yl)-1,2,4-oxadiazole], the results for the Emax in test [1] and in test [2] were above 75% and below 75%, respectively. Besides, the results for the EC50 in test [1] and in test [2] were above 10 µM and above 316 nM, respectively.

On to `CC(C)c1cc(-c2nc(-c3ccc4c(c3)nnn4C(C)C)no2)ccn1` [Compound 167, 3-(1-isopropyl-1H-benzo[d][1,2,3]triazol-5-yl)-5-(2-isopropyl-pyridin-4-yl)-1,2,4-oxadiazole], for which, in test [1], the Emax was below 75% and the EC50 was above 10 µM. In addition, in test [2], the Emax was below 75% and the EC50 is above 316 nM.

With `Cc1ccccc1-c1noc(-c2ccc3c(c2)nnn3C2CC2)n1` [Compound 171, 1-cyclopropyl-5-[3-(2-methylphenyl)-1,2,4-oxadiazol-5-yl]-1H-1,2,3-benzotriazole], in test [1], the Emax is above 75% and the EC50 was below 10 µM. Further, in test [2], the Emax is above 75% and the EC50 was below 316 nM.

Regarding `CC(C)n1nnc2cc(-c3nc(-c4ccccc4O)no3)ccc21` [Compound 180, 2-(5-(1-isopropyl-1H-benzo[d][1,2,3]triazol-5-yl)-1,2,4-oxadiazol-3-yl)phenol], in test [1], the Emax was above 75% and the EC50 was above 10 µM. For the same compound, in test [2], the Emax was above 75% and the EC50 is above 316 nM.

With `COc1ccccc1-c1cnc(-c2ccc3c(c2)nnn3C(C)C)s1` [Compound 184, 2-(1-isopropyl-1H-benzo[d][1,2,3]triazol-5-yl)-5-(2-methoxy-phenyl)thiazole], the Emax was below 75% in test [1] and above 75% in test [2]. Besides, the results for the EC50 in test [1] and in test [2] were above 10 µM and above 316 nM, respectively.
